The record followed here is patent publication US20100204203A1, “Chemical Compounds 637: Pyridopyrimidinediones as PDE4 Inhibitors” (priority 2007, published 2010).

Chain of recombinant Human Phosphodiesterase B2 (PDE4B2) (Q07343 1-564 isoform Q07343-2): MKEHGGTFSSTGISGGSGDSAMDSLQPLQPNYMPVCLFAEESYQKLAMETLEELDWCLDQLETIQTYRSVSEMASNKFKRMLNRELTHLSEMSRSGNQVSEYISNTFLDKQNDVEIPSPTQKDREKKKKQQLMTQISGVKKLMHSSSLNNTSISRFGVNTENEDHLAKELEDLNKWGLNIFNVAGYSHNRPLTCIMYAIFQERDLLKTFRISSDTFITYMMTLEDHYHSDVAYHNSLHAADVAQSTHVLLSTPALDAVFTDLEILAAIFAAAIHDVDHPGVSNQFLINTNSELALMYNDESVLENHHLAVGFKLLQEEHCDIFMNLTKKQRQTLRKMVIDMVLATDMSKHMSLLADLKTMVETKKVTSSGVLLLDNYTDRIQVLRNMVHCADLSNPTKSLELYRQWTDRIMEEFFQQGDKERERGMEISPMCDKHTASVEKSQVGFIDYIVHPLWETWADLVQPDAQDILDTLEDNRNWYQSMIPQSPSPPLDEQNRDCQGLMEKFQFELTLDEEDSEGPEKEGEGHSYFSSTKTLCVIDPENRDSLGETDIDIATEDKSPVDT

The target of this experiment is recombinant Human Phosphodiesterase B2 (PDE4B2) (Homo sapiens, UniProt Q07343). Briefly: Human Phosphodiesterase B2 Radiometric Assay (yttrium silicate SPA beads, [3H]cyclic AMP). To be noted: recombinant human PDE4B2, radiometric SPA assay, 8 nM [3H]cyclic AMP; read-out: PDE4B2 pIC50 (converted). In kind it is biochemical. The essentials:
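Compounds were preincubated 30 min at 30 °C with 0.1 mg/mL PDE4B2 in 50 mM HEPES pH 7.5, 8.3 mM MgCl2, 1.7 mM EGTA, 0.01% Brij 35. Then 8 nM [3H]cAMP was added for 20 min, stopped with yttrium silicate SPA beads plus 18 mM ZnSO4 capturing product 5′AMP; pIC50 by curve fitting.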
Take `Cn1ncc(CN[C@H]2CC[C@@H](n3c(=O)c4cc(F)cnc4n(-c4cccc(-c5ccc(CN6CCCOCC6)cc5)c4)c3=O)CC2)c1-c1ccccc1` [Example 265, 6-fluoro-3-(cis-4-{[(1-methyl-5-phenyl-1H-pyrazol-4-yl)methyl]amino}cyclohexyl)-1-[4′-(1,4-oxazepan-4-ylmethyl)biphenyl-3-yl]pyrido[2,3-d]pyrimidine-2,4(1H,3H)-dione]: the IC50 was 2 nM.
Take `Cc1cccc(C(=O)N[C@H]2CC[C@@H](n3c(=O)c4cc(F)cnc4n(-c4cccc(-c5ccc(CN6CCN(C7CCCC7)CC6)cc5)c4)c3=O)CC2)n1` [Example 294, N-{cis-4-[1-{4′-[(4-cyclopentylpiperazin-1-yl)methyl]biphenyl-3-yl}-6-fluoro-2,4-dioxo-1,4-dihydropyrido[2,3-d]pyrimidin-3(2H)-yl]cyclohexyl}-6-methylpyridine-2-carboxamide]: the IC50 was 0.0158 nM.
As for `O=c1c2cc(F)cnc2n(-c2cccc(-c3ccccc3)c2)c(=O)n1[C@H]1CC[C@@H](NCCO)CC1` [Example 86, 1-biphenyl-3-yl-6-fluoro-3-{cis-4-[(2-hydroxyethyl)amino]cyclohexyl}pyrido[2,3-d]pyrimidine-2,4(1H,3H)-dione], the figure is 31.6 nM; as for `Cc1nc(C(=O)N[C@H]2CC[C@@H](n3c(=O)c4cc(F)cnc4n(-c4cccc(-c5ccc(CN6CCC(N7CCCCC7)CC6)cc5)c4)c3=O)CC2)cs1` [Example 357, N-{cis-4-[1-[4′-(1,4′-bipiperidin-1′-ylmethyl)biphenyl-3-yl]-6-fluoro-2,4-dioxo-1,4-dihydropyrido[2,3-d]pyrimidin-3(2H)-yl]cyclohexyl}-2-methyl-1,3-thiazole-4-carboxamide], 0.0316 nM; as for `Cn1cc(CN[C@H]2CC[C@@H](n3c(=O)c4cc(F)cnc4n(-c4cccc(-c5ccc(O)cc5CN5CCOCC5)c4)c3=O)CC2)c(-c2ccccc2)n1` [Example 247, 6-Fluoro-1-[4′-hydroxy-2′-(morpholin-4-ylmethyl)biphenyl-3-yl]-3-(cis-4-{[(1-methyl-3-phenyl-1H-pyrazol-4-yl)methyl]amino}cyclohexyl)pyrido[2,3-d]pyrimidine-2,4(1H,3H)-dione], 0.2 nM.
As for `O=C(N[C@H]1CC[C@@H](n2c(=O)c3cc(F)cnc3n(-c3cccc(-c4ccc(CN5CCN(CCO)CC5)cc4)c3)c2=O)CC1)c1cn2c(n1)CCCC2` [Example 120, N-{cis-4-[6-fluoro-1-(4′-{[4-(2-hydroxyethyl)piperazin-1-yl]methyl}biphenyl-3-yl)-2,4-dioxo-1,4-dihydropyrido[2,3-d]pyrimidin-3(2H)-yl]cyclohexyl}-5,6,7,8-tetrahydroimidazo[1,2-a]pyridine-2-carboxamide], the figure is 0.0316 nM.
Regarding `O=C(N[C@H]1CC[C@@H](n2c(=O)c3cc(F)cnc3n(-c3cccc(-c4ccc(CN5CCC(N6CCCCC6)CC5)cc4)c3)c2=O)CC1)c1nc2ccccc2[nH]1` [Example 298, N-{cis-4-[1-[4′-(1,4′-bipiperidin-1′-ylmethyl)biphenyl-3-yl]-6-fluoro-2,4-dioxo-1,4-dihydropyrido[2,3-d]pyrimidin-3(2R)-yl]cyclohexyl}-1H-benzimidazole-2-carboxamide], the IC50 is 0.0316 nM.
As for `COc1ccc(CN[C@H]2CC[C@@H](n3c(=O)c4cc(F)cnc4n(-c4cccc(-c5ccc(CN6CCN(C(C)C)CC6)cc5)c4)c3=O)CC2)cc1OC(C)=O` [Example 257, 5-[({cis-4-[6-Fluoro-1-{4′-[(4-isopropylpiperazin-1-yl)methyl]biphenyl-3-yl}-2,4-dioxo-1,4-dihydropyrido[2,3-d]pyrimidin-3(2H)-yl]cyclohexyl}amino)methyl]-2-methoxyphenyl acetate], the figure is 0.794 nM; as for `O=C(N[C@H]1CC[C@@H](n2c(=O)c3cc(F)cnc3n(-c3cccc(-c4ccc(CN5CCC(N6CCCCC6)CC5)cc4)c3)c2=O)CC1)c1cn2c(n1)CCCC2` [Example 223, N-{cis-4-[1-[4′-(1,4′-bipiperidin-1′-ylmethyl)biphenyl-3-yl]-6-fluoro-2,4-dioxo-1,4-dihydropyrido[2,3-d]pyrimidin-3(2H)-yl]cyclohexyl}-5,6,7,8-tetrahydroimidazo[1,2-a]pyridine-2-carboxamide], 0.01 nM.
As for `O=C1CCN(Cc2cc(O)ccc2-c2cccc(-n3c(=O)n([C@H]4CC[C@@H](NCc5cn6cc(F)ccc6n5)CC4)c(=O)c4cc(F)cnc43)c2)CCN1` [Example 375, 6-fluoro-3-(cis-4-{[(6-fluoroimidazo[1,2-a]pyridin-2-yl)methyl]amino}cyclohexyl)-1-{4′-hydroxy-2′-[(5-oxo-1,4-diazepan-1-yl)methyl]biphenyl-3-yl}pyrido[2,3-d]pyrimidine-2,4(1H,3H)-dione], the figure is 0.0126 nM; as for `O=c1c2cc(F)cnc2n(-c2cccc(-c3ccc(O)cc3CN3CCC[C@@H]3CO)c2)c(=O)n1[C@H]1CC[C@@H](NCc2cn3cc(F)ccc3n2)CC1` [Example 332, 6-fluoro-3-(cis-4-{[(6-fluoroimidazo[1,2-a]pyridin-2-yl)methyl]amino}cyclohexyl)-1-(4′-hydroxy-2′-{[(2R)-2-(hydroxymethyl)pyrrolidin-1-yl]methyl}biphenyl-3-yl)pyrido[2,3-d]pyrimidine-2,4(1H,3H)-dione], 0.0501 nM; as for `Cc1cc(C(=O)N[C@H]2CC[C@@H](n3c(=O)c4cc(F)cnc4n(-c4cccc(-c5ccc(CN6CCC(N7CCCCC7)CC6)cc5)c4)c3=O)CC2)nn1C` [Example 289, N-{cis-4-[1-[4′-(1,4′-bipiperidin-1′-ylmethyl)biphenyl-3-yl]-6-fluoro-2,4-dioxo-1,4-dihydropyrido[2,3-d]pyrimidin-3(2H)-yl]cyclohexyl}-1,5-dimethyl-1H-pyrazole-3-carboxamide], 0.0126 nM.
As for `CC(C)NCCOc1ccc(-c2cccc(-n3c(=O)n([C@H]4CC[C@@H](NC(=O)c5cn6cc(F)ccc6n5)CC4)c(=O)c4cc(F)cnc43)c2)cc1` [Example 342], the figure is 0.0316 nM; as for `Cc1cc(C(=O)N[C@H]2CC[C@@H](n3c(=O)c4cc(F)cnc4n(-c4cccc(-c5ccc(O)cc5CN(C)C)c4)c3=O)CC2)nn1C` [Example 348, N-{cis-4-[1-{2′-[(dimethylamino)methyl]-4′-hydroxybiphenyl-3-yl}-6-fluoro-2,4-dioxo-1,4-dihydropyrido[2,3-d]pyrimidin-3(2H)-yl]cyclohexyl}-1,5-dimethyl-1H-pyrazole-3-carboxamide], 0.0251 nM; as for `O=C(N[C@H]1CC[C@@H](n2c(=O)c3cc(F)cnc3n(-c3cccc(-c4ccc(O)cc4)c3)c2=O)CC1)c1cn2cc(F)ccc2n1` [Example 22, 6-fluoro-N-{cis-4-[6-fluoro-1-(4′-hydroxybiphenyl-3-yl)-2,4-dioxo-1,4-dihydropyrido[2,3-d]pyrimidin-3(2H)-yl]cyclohexyl}imidazo[1,2-a]pyridine-2-carboxamide.], 0.0251 nM.
As for `Cc1ccc(CN[C@H]2CC[C@@H](n3c(=O)c4cc(F)cnc4n(-c4cccc(-c5ccc(CN6CCN(C(C)C)CC6)cc5)c4)c3=O)CC2)s1` [Example 261, 6-fluoro-1-{4′-[(4-isopropylpiperazin-1-yl)methyl]biphenyl-3-yl}-3-(cis-4-{[(5-methyl-2-thienyl)methyl]amino}cyclohexyl)pyrido[2,3-d] pyrimidine-2,4(1H,3H)-dione], the IC50 was 0.631 nM.
As for `Cc1cnc(C(=O)N[C@H]2CC[C@@H](n3c(=O)c4cc(F)cnc4n(-c4cccc(-c5ccc(CN6CCN(C7CCCC7)CC6)cc5)c4)c3=O)CC2)cn1` [Example 288, N-{cis-4-[1-{4′-[(4-cyclopentylpiperazin-1-yl)methyl]biphenyl-3-yl}-6-fluoro-2,4-dioxo-1,4-dihydropyrido[2,3-d]pyrimidin-3(2H)-yl]cyclohexyl}-5-methylpyrazine-2-carboxamide], the figure is 0.0501 nM; as for `CN(C)Cc1cccc(-c2cccc(-n3c(=O)n([C@H]4CC[C@@H](NC(=O)c5cn6cc(F)ccc6n5)CC4)c(=O)c4cc(F)cnc43)c2)c1` [Example 16, N-{cis-4-[1-{3′-[(dimethylamino)methyl]biphenyl-3-yl}-6-fluoro-2,4-dioxo-1,4-dihydropyrido[2,3-d]pyrimidin-3(2H)-yl]cyclohexyl}-6-fluoroimidazo[1,2-a]pyridine-2-carboxamide.], 0.251 nM; as for `CC(=O)n1cc(CN(Cc2cn(C(C)=O)c3ccccc23)[C@H]2CC[C@@H](n3c(=O)c4cc(F)cnc4n(-c4cccc(-c5ccc(CN6CCN(C(C)C)CC6)cc5)c4)c3=O)CC2)c2ccccc21` [Example 341, 3-(cis-4-{bis[(1-acetyl-1H-indol-3-yl)methyl]amino}cyclohexyl)-6-fluoro-1-{4′-[(4-isopropylpiperazin-1-yl)methyl]biphenyl-3-yl}pyrido[2,3-d]pyrimidine-2,4(1H,3H)-dione], 0.501 nM.
Consider `Cc1cc(-c2ccc(CN3CCNCC3)cc2)cc(-n2c(=O)n([C@H]3CC[C@@H](NC(=O)c4cn5cc(F)ccc5n4)CC3)c(=O)c3cc(F)cnc32)c1` [Example 230, 6-Fluoro-N-{cis-4-[6-fluoro-1-[5-methyl-4′-(piperazin-1-ylmethyl)biphenyl-3-yl]-2,4-dioxo-1,4-dihydropyrido[2,3-d]pyrimidin-3 (2H)-yl]cyclohexyl}imidazo[1,2-a]pyridine-2-carboxamide], for which the IC50 is 0.0316 nM.
As for `CN1CCN(CC(=O)N[C@H]2CC[C@@H](n3c(=O)c4cc(F)cnc4n(-c4cccc(-c5ccc(CN6CCCN(C)CC6)cc5)c4)c3=O)CC2)CC1` [Example 291, N-{cis-4-[6-fluoro-1-{4′-[(4-methyl-1,4-diazepan-1-yl)methyl]biphenyl-3-yl}-2,4-dioxo-1,4-dihydropyrido[2,3-d]pyrimidin-3(2H)-yl]cyclohexyl}-2-(4-methylpiperazin-1-yl)acetamide], the figure is 0.2 nM.
